What was measured:
[1] = system: phosphorylation of Akt at Ser473; test: Cell-based phospho-Akt Ser473 assay (HCT116 cell); details: HCT 116 human colon carcinoma cells, IGF-1 stimulated; average
How it was run: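 HCT116 human colon carcinoma cells, 16,000/well, were treated with compounds in a 10-point 3-fold series for 2 h at 37 °C in McCoy's with 0.1% BSA. They were then stimulated with IGF-1 at 100 ng/ml for 15 min. Phospho-Akt Ser473 in lysates was measured by MSD electrochemiluminescent sandwich immunoassay, and IC50 came from dose-response.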

PI3Kβ = target: T1, PI3Kβ (Homo sapiens, UniProt P42338); test: In vitro PI3 kinase enzyme assay (PI3K ATP loss), beta; format: biochemical; details: average if run more than once
T1 construct: Full length p110 subunits of PI3K α, β and δ, N-terminally labeled with polyHis tag; polyHis (N); made in house; host or cells: Sf9 insect cells (baculovirus)
Experimental: (§1) Full length p110 subunits of PI3K α, β and δ, N-terminally labeled with polyHis tag, can be co-expressed with p85 with Baculo virus expression vectors in sf9 insect cells. P110/p85 heterodimers can be purified by sequential Ni-NTA, Q-HP, Superdex-100 chromatography. Purified α, β and δ isozymes can be stored at −20° C. in 20 mM Tris, pH 8, 0.2M NaCl, 50% glycerol, 5 mM DTT, 2 mM Na cholate. […] The γ isozyme can be purified by sequential Ni-NTA, Superdex-200, Q-HP chromatography. The γ isozyme can be stored frozen at −80° C. in NaH2PO4, pH 8, 0.2M NaCl, 1% ethylene glycol, 2 mM β-mercaptoethanol.
(§2) In Vitro PI3 Kinase Enzyme Assays (PI3K Atploss)
(§3) PI3K enzyme assays (alpha, beta, delta and gamma) can be performed in 25 μL with the above final concentrations of components in white polyproplyene plates. Phosphatidyl inositol phosphoacceptor, PtdIns(4,5)P2 (eg. P4508) can be obtained from Echelon Biosciences, Salt Lake City, Utah. […] Test compounds can be dissolved in DMSO and diluted with three-fold serial dilutions. The compound in DMSO (1 μL) may be added per test well, and the inhibition relative to reactions containing no compound, with and without enzyme can be determined After assay incubation at RT, the reaction can be stopped and residual ATP can be determined by addition of an equal volume of a commercial ATP bioluminescence kit (Perkin Elmer EasyLite, Perkin Elmer, Waltham, Mass.) according to the manufacturer's instructions, and detected using an Analyst GT luminometer.

PI3Kα [2] = target: T2, PI3Kα (Homo sapiens, UniProt P42336); test: In vitro PI3 kinase enzyme assay (PI3K ATP loss), alpha; format: biochemical; details: average if run more than once; read-out: ATP Loss (PBKα) IC50 μM (Avg)
T2 construct: Full length p110 subunits of PI3K α, β and δ, N-terminally labeled with polyHis tag; polyHis (N); made in house; host or cells: Sf9 insect cells (baculovirus)
Experimental: as §1, §2, §3

[3] = system: phosphorylation of Akt at Serine 473; test: pAkt AlphaScreen (U87 cell); format: cell-based; details: Homo sapiens, U-87 MG; U87 MG cells, pAkt Ser473; average
Experimental: pAkt Alphascreen (U87 Cell)
The pAkt AlphaScreen® assay (PerkinElmer, Waltham, Mass.) determines whether there is phosphorylation of Akt at Serine 473 by recruitment of a phosphospecific antibody. This assay was performed using U87 MG cells. The U87 growth media consists of MEM (Gibco, Carlsbad, Calif.) supplemented with 10% FBS (Gibco,), 1× Non-Essential Amino Acids (Gibco,) and 1× Penicillin/Streptomycin/Glutamine (Gibco). The cells were maintained weekly using 0.05% Trypsin (Gibco) and replated in 150 mm TC-Treated Culture Dishes (Corning, Corning, N.Y.).
The first day of the assay, the adherent cells were trypsinized, media was added to the loose cells and cells were mixed to a homogenous mixture. 0.5 ml of the homogenous mixture was counted on the Beckman Coulter® Vi-CELL™ XR (Fullerton, Calif.). 50 frames of cells were counted and the number of viable cells was determined. The cells were then diluted to 0.25 million cells per ml, and centrifuged at 200 rcf for 5 minutes. The media was removed and the cells were reconstituted in fresh media for plating. The cells were plated at 20 μl per well on the PerkinElmer® FlexDrop PLUS in Low Volume 384 Well White Tissue Culture Plates (Corning) with a final cell density of 5K cells per well. The plates were incubated overnight at 37° Celsius, 5% CO2.
On the second day, the compound plates were prepared, the cells were treated with compound and the pAkt reaction mix was added to the cell lysate. 384 well compound plates were prepared containing 1 μl of compound per well starting at 5 mM and diluted 1:2 across the row, resulting in a 22 well serial dilution. 39 μl of growth media was added to the compound plate in rows 1-22 using the PerkinElmer® FlexDrop PLUS resulting in a DMSO concentration of 2.5%. The cell plates and diluted compound plates were put onto the VELOCITY11™ VPREP™ 384 ST where the compound plate was mixed and 5 μl of serially diluted compound or controls was added to the cell plate. The final concentration of the compounds was 25 μM serially diluted to 11.9 pM in 0.5% DMSO. The cell plates were then incubated with compound for two hours at 37° Celsius, 5% CO2. After two hours, the media in the cell plates was aspirated using the BioTek® ELx405HT plate washer (Winooski, Vt.) removing the majority of media and compound without disturbing the adherent U87 cells. The following assay reagents are components of the SureFire® Akt (Ser 473) Phosphorylation 50K Point Kit (TGR BioSciences, Adelaide, Austalia) and an IgG Detection Kit (PerkinElmer, Waltham, Mass.). 5 μl of 1× Lysis Buffer was added to each well using the PerkinElmer® FlexDrop PLUS. The plates were then incubated at room temperature on a shaker for ten minutes. The AlphaScreen® reaction was prepared under low light conditions (subdued or green light) including p-Akt (Ser 473) Reaction Buffer, Dilution Buffer, Activation Buffer, Acceptor Beads and Donor Beads at a ratio of 40:20:10:1:1 respectively. The AlphaScreen® reaction was added to the cell lysate at 6 μl per well using the PerkinElmer® FlexDrop PLUS. The plates were placed in a humid environment to reduce edge effects and incubated overnight at room temperature with restricted air flow in the dark.
On the final day of the experiment, the plates were read on the PerkinElmer® EnVision™ 2103 Multilable Reader using the standard AlphaScreen® readout. The POC is calculated and the data is analyzed to report the IC50 IP for pAkt at Serine 473.
Activity data for the compounds tested in the PI3K cell based Akt assay is provided in Table 2 under the column heading U87

mTOR = target: T3, mTOR (Homo sapiens, UniProt P42345); test: In vitro mTOR assay (Lanthascreen); format: biochemical; details: average if run more than once
T3 construct: purchased Invitrogen (Carlsbad, Calif.)
From the text: The Invitrogen (Carlsbad, Calif.) mammalian target of rapamycin (mTOR) Lanthascreen assay can be used to quantitate mTOR kinase activity in an in vitro setting. Active mTOR phosphorylates eukaryotic translation initiation factor 4E binding protein 1 (4E-BP1) on residue threonine 46. This phosphorylation event can be detected with a phospho-specific terbium (Tb) labeled Ab, in turn bringing the Tb label in close proximity to the GFP tagged 4E-BP1 and allowing for time-resolved fluorescence resonance energy transfer (TR-FRET), which correlates 4E-BP1 phosphorylation levels with mTOR kinase activity.
Enzyme reaction buffer can be prepared in deionized water containing 50 mM HEPES (pH 7.5), 0.01% Polysorbate 20, 1 mM EGTA, and 10 mM MnCl2.
Dilutions of the compound to be tested can be prepared in 96-well polypropylene plates (Fisher Scientific, Waltham, Mass.). One row represents a 10-point dose of compound diluted 1:3 in enzyme reaction buffer and 20% dimethyl sulfoxide (DMSO). The top concentration for all compounds is 36 μM. Wells 6 and 12 can serve as the no compound (DMSO only) and high compound controls.
An mTOR substrate solution can prepared in enzyme reaction buffer containing 1600 nM green fluorescent protein tagged eukaryotic translation initiation factor 4E binding protein 1 (GFP-4E-BP1) (Invitrogen, Carlsbad, Calif.) and 28 uM adenosine triphosphate (ATP) (Calbiochem, Gibbstown, N.J.).
mTOR enzyme (Invitrogen, Carlsbad, Calif.) can be diluted in enzyme reaction buffer to a working concentration of 100 ng/mL.
The enzyme assay can be run in 384 well low volume assay plates (Corning, Corning, N.Y.). 2.5 uL of substrate solution containing GFP-4E-BP1 and ATP can be added to appropriate wells in the assay plate followed by 2.5 μL of compound dilutions. 5 μL of appropriately diluted mTOR enzyme can be added and the reaction allowed to proceed for 1 hour at room temperature. Final reagent concentrations in the enzyme assay are 50 ng/mL mTOR, 400 nM GFP-4E-BP1, and 7 μM ATP.
The enzyme assay can be terminated upon the addition of 10 μL of 20 mM EDTA and 4 nM Tb-labeled anti-phospho-4E-BP1 [T46] antibody (Invitrogen, Carlsbad, Calif.). The assay plate can then be incubated at room temperature for 1 hour and results read on a Tecan Safire II plate reader (Tecan, Männedorf, Switzerland).

PI3Kα [4] = target: T2, PI3Kα; test: In vitro PI3K AlphaScreen assay; format: biochemical; details: average if run more than once
Experimental: In Vitro PI3K Alphascreen® Assay
The PI3K AlphaScreen® assay (PerkinElmer, Waltham, Mass.) measures the activity of a panel of four phosphoinositide 3-kinases: PI3Kα, PI3Kβ, PI3Kγ, and PI3Kδ. Each of these enzymes phosphorylates the 3′-hydroxyl group on phosphatidylinositiol (4,5)-bisphosphate (PIP2) to produce phosphatidylinositol (3,4,5)-trisphosphate (PIP3). This phosphorylation activity is measured using a GST-tagged PIP3 binding protein (Echelon Biosciences, Salt Lake City, Utah), an anti-GST-tagged Acceptor bead, and streptavidin-Donor bead. […] In the absence of this interaction, proximity of the Donor and Acceptor beads is decreased, producing a loss of luminescent signal which is inversely proportional to PI3K activity.
The enzyme reaction buffer is made using sterile water (Baxter, Deerfield, Ill.) and 50 mM Tris HCl pH 7, 14 mM MgCl2, 2 mM sodium cholate, and 100 mM NaCl. 2 mM DTT is added fresh the day of the experiment. The AlphaScreen® reaction buffer is made using sterile water and 10 mM Tris HCl pH 7.5, 150 mM NaCl, 0.10% Tween 20, and 30 mM EDTA. 1 mM DTT is added fresh the day of the experiment.
The source plates for this assay are 384-well Greiner clear polypropylene plates containing test compounds at 5mM and diluted 1:2 over 22 points. […] Source plates are replicated into 384-well Optiplates (PerkinElmer, Waltham, Mass.), 0.5 μL/well, to make assay-ready plates.
The different PI3K isoforms are each diluted in enzyme reaction buffer to 2× working solutions. […] Two different 2× substrate solutions are made in enzyme reaction buffer. In one solution, PI(4,5)P2 (Echelon Biosciences, Salt Lake City, Utah) is diluted to 10 μM and ATP is diluted to 20 μM. This solution is used in the assays testing PI3Kα and PI3Kβ. In a second solution, PI(4,5)P2 is diluted to 10 μM and ATP is diluted to 8 μM. This solution used in the assays testing PI3Kγ and PI3Kδ.
The AlphaScreen® reaction solutions are made using beads from the anti-GST AlphaScreen® kit (PerkinElmer, Waltham, Mass.). Two solutions are made in Alphascreen reaction buffer to 4× working concentrations. In one solution, biotinylated-IP4 (Echelon Biosciences, Salt Lake City, Utah) is diluted to 40 nM and streptavadin-Donor Beads are diluted to 80 μg/mL. In the second solution, PIP3-binding protein (Echelon Biosciences, Salt Lake City, Utah) is diluted to 40 nM and anti-GST-Acceptor Beads are diluted to 80 μg/mL. 10 μL/well of enzyme reaction buffer is added to Column 24 of the assay ready plates in place of enzyme. This is done for plates in the PI3Kα, β, and 67 assays.
Using a 384-well dispensing Multidrop (Titertek, Huntsville, Ala.), 10 μL/well of 2× enzyme (PI3Kα, β, δ) is added to Columns 1-23 of the appropriate assay ready plates (for PI3Kγ 10 μL is added to Columns 1-24). 10 μL/well of the appropriate substrate solution (the solution with 20 μM ATP for PI3Kα and β assays, and the solution with 8 μM ATP for PI3Kγ and δ assays) is then added to Columns 1-24 of the plates. Plates are then incubated at room temperature for 20 minutes.
In the dark, 10 μL/well of the Donor Bead solution is added to Columns 1-24 of the plates to quench the enzyme reaction. The plates are incubated at room temperature for 30 minutes. Still in the dark, 10 μL/well of the Acceptor Bead solution is also added to Columns 1-24 of the plates. The plates are then incubated in the dark for 1.5 hours. The plates are read on an Envision Multilabel Plate Reader (PerkinElmer, Waltham, Mass.) with a 680 nm excitation filter and a 520-620 nm emission filter.

T1 sequence (P42338 whole entry): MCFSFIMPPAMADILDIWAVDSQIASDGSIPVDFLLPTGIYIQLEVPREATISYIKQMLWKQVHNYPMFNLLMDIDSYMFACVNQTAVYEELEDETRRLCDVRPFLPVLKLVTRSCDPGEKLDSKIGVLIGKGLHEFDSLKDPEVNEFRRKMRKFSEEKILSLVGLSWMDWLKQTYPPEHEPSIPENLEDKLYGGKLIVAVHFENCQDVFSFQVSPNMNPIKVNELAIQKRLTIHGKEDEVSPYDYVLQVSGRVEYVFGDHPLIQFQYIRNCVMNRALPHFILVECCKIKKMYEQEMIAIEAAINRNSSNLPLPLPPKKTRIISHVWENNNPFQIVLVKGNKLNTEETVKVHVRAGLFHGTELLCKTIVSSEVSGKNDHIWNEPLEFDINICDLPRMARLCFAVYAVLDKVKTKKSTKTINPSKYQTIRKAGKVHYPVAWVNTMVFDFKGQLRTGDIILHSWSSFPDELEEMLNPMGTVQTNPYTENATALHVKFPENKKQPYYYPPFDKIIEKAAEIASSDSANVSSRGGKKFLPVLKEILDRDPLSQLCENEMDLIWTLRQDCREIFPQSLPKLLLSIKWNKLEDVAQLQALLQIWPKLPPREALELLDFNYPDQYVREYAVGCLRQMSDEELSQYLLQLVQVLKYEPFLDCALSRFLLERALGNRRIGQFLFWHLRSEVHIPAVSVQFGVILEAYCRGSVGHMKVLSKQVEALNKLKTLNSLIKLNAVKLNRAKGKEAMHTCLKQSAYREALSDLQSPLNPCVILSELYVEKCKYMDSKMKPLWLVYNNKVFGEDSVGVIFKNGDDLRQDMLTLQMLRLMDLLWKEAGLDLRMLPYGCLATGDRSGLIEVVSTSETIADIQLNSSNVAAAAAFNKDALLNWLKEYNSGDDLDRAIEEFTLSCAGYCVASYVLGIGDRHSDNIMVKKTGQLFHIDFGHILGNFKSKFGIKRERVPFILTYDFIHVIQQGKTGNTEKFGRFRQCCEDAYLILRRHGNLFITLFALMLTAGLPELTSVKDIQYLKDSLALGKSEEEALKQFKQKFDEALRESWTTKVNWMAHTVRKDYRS
T1 sequence (P27986 whole entry partner): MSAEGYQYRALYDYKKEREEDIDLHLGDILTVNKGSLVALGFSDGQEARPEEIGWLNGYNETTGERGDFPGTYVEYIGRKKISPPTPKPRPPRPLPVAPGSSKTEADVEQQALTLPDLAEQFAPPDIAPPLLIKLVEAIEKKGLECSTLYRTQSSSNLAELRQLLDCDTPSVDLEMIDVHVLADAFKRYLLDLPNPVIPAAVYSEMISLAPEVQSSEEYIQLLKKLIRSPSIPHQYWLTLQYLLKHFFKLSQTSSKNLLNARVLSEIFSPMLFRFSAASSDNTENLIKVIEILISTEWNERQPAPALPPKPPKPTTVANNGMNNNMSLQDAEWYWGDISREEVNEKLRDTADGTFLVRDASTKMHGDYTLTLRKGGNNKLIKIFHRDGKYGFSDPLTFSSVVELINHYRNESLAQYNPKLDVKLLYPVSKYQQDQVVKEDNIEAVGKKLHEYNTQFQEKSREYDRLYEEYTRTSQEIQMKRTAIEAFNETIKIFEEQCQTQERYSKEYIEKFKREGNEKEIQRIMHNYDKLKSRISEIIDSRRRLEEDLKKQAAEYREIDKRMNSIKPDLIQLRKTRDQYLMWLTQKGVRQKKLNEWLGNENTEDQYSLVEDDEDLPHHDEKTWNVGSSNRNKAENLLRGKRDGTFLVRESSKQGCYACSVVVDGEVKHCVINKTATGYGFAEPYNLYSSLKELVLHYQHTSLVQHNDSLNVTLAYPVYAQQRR
T2 sequence (P42336 whole entry): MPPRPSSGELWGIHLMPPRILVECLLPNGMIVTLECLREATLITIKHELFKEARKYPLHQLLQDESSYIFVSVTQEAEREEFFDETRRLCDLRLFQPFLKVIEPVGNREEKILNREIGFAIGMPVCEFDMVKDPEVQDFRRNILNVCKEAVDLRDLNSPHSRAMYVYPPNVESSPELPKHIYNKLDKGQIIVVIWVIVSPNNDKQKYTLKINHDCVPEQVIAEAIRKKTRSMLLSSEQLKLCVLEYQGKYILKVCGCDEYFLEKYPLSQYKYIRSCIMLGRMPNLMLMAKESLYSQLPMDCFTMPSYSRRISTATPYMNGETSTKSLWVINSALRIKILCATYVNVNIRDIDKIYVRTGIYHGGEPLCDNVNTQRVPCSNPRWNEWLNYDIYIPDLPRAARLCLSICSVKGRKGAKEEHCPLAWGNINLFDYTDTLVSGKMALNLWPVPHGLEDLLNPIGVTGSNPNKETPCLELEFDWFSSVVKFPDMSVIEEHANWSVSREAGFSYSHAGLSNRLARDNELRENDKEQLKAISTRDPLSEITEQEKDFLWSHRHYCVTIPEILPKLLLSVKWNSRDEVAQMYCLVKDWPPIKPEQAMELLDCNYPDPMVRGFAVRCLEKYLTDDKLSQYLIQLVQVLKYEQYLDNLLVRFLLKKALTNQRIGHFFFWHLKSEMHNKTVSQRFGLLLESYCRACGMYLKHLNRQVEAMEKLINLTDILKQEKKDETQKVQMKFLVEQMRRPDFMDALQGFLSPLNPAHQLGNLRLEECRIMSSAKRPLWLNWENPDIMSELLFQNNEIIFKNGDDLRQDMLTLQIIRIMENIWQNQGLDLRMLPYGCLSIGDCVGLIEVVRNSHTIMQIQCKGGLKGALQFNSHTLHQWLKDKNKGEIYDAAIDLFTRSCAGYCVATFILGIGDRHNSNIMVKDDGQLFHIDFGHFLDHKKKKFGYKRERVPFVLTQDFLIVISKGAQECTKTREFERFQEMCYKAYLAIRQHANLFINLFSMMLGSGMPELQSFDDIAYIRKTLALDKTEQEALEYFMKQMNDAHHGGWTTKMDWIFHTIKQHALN
T2 sequence (P27986 whole entry partner): as the sequence (P27986 whole entry partner) above
T3 sequence (P42345 1360-2549 limits assumed): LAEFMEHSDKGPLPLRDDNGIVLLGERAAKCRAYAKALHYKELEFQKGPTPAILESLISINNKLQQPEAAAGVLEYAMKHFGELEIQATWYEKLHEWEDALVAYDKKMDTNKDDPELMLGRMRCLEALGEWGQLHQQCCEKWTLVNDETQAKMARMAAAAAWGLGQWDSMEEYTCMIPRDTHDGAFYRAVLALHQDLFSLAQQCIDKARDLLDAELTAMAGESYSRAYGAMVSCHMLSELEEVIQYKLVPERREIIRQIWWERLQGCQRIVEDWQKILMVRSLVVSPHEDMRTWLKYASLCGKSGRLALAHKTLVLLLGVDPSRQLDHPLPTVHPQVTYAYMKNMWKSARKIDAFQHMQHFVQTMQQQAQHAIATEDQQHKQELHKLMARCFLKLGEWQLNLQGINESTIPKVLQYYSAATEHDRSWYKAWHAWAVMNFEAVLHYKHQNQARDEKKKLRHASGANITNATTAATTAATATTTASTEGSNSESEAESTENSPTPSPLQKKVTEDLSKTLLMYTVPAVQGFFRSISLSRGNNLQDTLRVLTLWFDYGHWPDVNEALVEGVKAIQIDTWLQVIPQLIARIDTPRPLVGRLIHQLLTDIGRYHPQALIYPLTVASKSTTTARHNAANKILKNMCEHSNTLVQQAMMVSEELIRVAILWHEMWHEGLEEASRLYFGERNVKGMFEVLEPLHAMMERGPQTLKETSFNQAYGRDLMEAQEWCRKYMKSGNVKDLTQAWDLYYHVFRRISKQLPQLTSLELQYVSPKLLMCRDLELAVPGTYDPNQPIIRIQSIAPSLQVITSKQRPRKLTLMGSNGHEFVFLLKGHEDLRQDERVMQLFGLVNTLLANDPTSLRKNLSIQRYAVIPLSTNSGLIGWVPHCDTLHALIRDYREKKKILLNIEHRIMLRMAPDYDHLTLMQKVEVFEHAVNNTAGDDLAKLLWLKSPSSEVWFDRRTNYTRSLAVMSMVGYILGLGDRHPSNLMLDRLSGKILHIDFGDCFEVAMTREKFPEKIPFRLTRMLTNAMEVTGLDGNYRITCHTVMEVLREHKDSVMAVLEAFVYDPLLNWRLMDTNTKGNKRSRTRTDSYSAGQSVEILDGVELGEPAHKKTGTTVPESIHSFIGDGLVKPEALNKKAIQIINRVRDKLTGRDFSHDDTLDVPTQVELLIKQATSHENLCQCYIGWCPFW

SMILES | IC50 [1] | IC50 (PI3Kβ) | IC50 (PI3Kα [2]) | IC50 [3] | IC50 (mTOR) | Ki (PI3Kα [4])
CC1CN(c2cnc3ccc(-c4cnc(Cl)c(NS(=O)(=O)c5ccc(F)cc5)c4)cc3n2)CC(C)O1 (centres unmarked) [Example 67, N-(2-chloro-5-(3-(2,6-dimethyl-4-morpholinyl)-6-quinoxalinyl)-3-pyridinyl)-4-fluorobenzenesulfonamide] | 0.0203 µM | 0.0648 µM | 0.0029 µM | – | – | –
COCC1CCCN1c1cnc2ccc(-c3cnc(Cl)c(NS(=O)(=O)c4ccc(F)cc4)c3)cc2n1 (centres unmarked) [Example 68, N-(2-chloro-5-(3-(2-(methoxymethyl)-1-pyrrolidinyl)-6-quinoxalinyl)-3-pyridinyl)-4-fluorobenzenesulfonamide] | 0.0434 µM | 0.0358 µM | 0.0081 µM | – | – | –
CN(CC#N)c1cnc2ccc(-c3cnc(Cl)c(NS(=O)(=O)c4ccc(F)cc4)c3)cc2n1 [Example 71, N-(2-chloro-5-(3-((cyanomethyl)(methyl)amino)-6-quinoxalinyl)-3-pyridinyl)-4-fluorobenzenesulfonamide] | 0.0893 µM | 0.0934 µM | 0.0188 µM | – | – | –
O=S(=O)(Nc1cc(-c2ccc3ncc(N4CCNCC4)nc3c2)cnc1Cl)c1ccc(F)cc1 [Example 72, N-(2-chloro-5-(3-(1-piperazinyl)-6-quinoxalinyl)-3-pyridinyl)-4-fluorobenzenesulfonamide] | 0.0168 µM | 0.01 µM | 0.0049 µM | – | – | –
O=S(=O)(Nc1cc(-c2ccc3ncc(NCC4CCCNC4)nc3c2)cnc1Cl)c1ccc(F)cc1 (centres unmarked) [Example 74, N-(2-chloro-5-(3-((3-piperidinylmethyl)amino)-6-quinoxalinyl)-3-pyridinyl)-4-fluorobenzenesulfonamide] | 2.63 µM | 0.0463 µM | 0.0192 µM | – | – | –
O=S(=O)(Nc1cc(-c2ccc3nccc(N4CCN(Cc5ccncc5)CC4)c3c2)cnc1Cl)c1ccc(F)cc1 [Example 89, N-(2-chloro-5-(4-(4-(4-pyridinylmethyl)-1-piperazinyl)-6-quinolinyl)-3-pyridinyl)-4-fluorobenzenesulfonamide] | – | – | – | 0.0223 µM | 0.0039 µM | –
O=S(=O)(Nc1cc(-c2ccc3ncc(NCCN4CCOCC4)nc3c2)cnc1Cl)c1ccc(F)cc1 [Example 91, N-(2-chloro-5-(3-((2-(4-morpholinyl)ethyl)amino)-6-quinoxalinyl)-3-pyridinyl)-4-fluorobenzenesulfonamide] | – | – | – | 0.075 µM | 0.0053 µM | –
O=S(=O)(Nc1cc(-c2ccc3nccc(-c4cccnc4)c3c2)cnc1Cl)c1ccc(F)cc1 [Example 93, N-(2-chloro-5-(4-(3-pyridinyl)-6-quinolinyl)-3-pyridinyl)-4-fluorobenzenesulfonamide] | – | – | – | 0.0119 µM | 0.0016 µM | –
O=S(=O)(Nc1cc(-c2ccc3nccc(N4CCCC(O)CC4)c3c2)cnc1Cl)c1ccc(F)cc1 (centres unmarked) [Example 95, N-(2-chloro-5-(4-(4-hydroxy-1-azepanyl)-6-quinolinyl)-3-pyridinyl)-4-fluorobenzenesulfonamide] | – | – | – | – | 0.111 µM | 0.0058 µM
COCC(C)Nc1ccnc2ccc(-c3cnc(Cl)c(NS(=O)(=O)c4ccc(F)cc4)c3)cc12 (centres unmarked) [Example 99, N-(2-chloro-5-(4-((2-methoxy-1-methylethyl)amino)-6-quinolinyl)-3-pyridinyl)-4-fluorobenzenesulfonamide] | – | – | – | – | 2.39 µM | 0.121 µM
O=S(=O)(Nc1cc(-c2ccc3nccc(OCC4CCSCC4)c3c2)cnc1Cl)c1ccc(F)cc1 [Example 100, N-(2-chloro-5-(4-(tetrahydro-2H-thiopyran-4-ylmethoxy)-6-quinolinyl)-3-pyridinyl)-4-fluorobenzenesulfonamide] | – | – | – | – | 0.04 µM | 0.0012 µM
CS(=O)(=O)Nc1cc(-c2ccc3nccc(C4CCOCC4)c3c2)cnc1Cl [Example 114, N-(2-Chloro-5-(4-(tetrahydro-2H-pyran-4-yl)quinolin-6-yl)pyridin-3-yl)methanesulfonamide] | – | – | – | 0.0254 µM | 0.0063 µM | –
O=S1(=O)CCC(Oc2ccnc3ccc(-c4cnc(Cl)c(NS(=O)(=O)c5ccc(F)cc5)c4)cc23)C1 (centres unmarked) [Example 115, N-(2-Chloro-5-(4-(tetrahydrothiophen-1,1-dioxide-3-yloxy)quinolin-6-yl)pyridin-3-yl)-4-fluorobenzenesulfonamide] | – | – | – | 0.194 µM | 0.0126 µM | –
O=S(=O)(Nc1cc(-c2ccc3ncc(-c4ccncc4)nc3c2)cnc1Cl)c1ccc(F)cc1 [Example 121, N-(2-Chloro-5-(3-(pyridin-4-yl)quinoxalin-6-yl)pyridin-3-yl)-4-fluorobenzenesulfonamide] | – | – | – | 0.031 µM | 0.0057 µM | –
COc1ccc(S(=O)(=O)Nc2cc(-c3ccc4c(c3)OCCO4)cnc2Cl)cc1 [Example 127, N-(2-Chloro-5-(2,3-dihydrobenzo[b][1,4]dioxin-6-yl)pyridin-3-yl)-4-methoxybenzenesulfonamide] | – | – | – | – | 0.0651 µM | 0.0273 µM
O=C1COc2ccc(-c3cnc(Cl)c(NS(=O)(=O)c4ccc(F)cc4)c3)cc2N1 [Example 129, N-(2-Chloro-5-(3-oxo-3,4-dihydro-2H-benzo[b][1,4]oxazin-6-yl)pyridin-3-yl)-4-fluorobenzenesulfonamide] | – | – | – | – | – | 0.0858 µM
O=S(=O)(Nc1cc(N2CCc3ncccc3C2)cnc1Cl)c1ccc(F)cc1 [Example 135, N-(2-Chloro-5-(7,8-dihydro-1,6-naphthyridin-6(5H)-yl)pyridin-3-yl)-4-fluorobenzenesulfonamide] | – | – | – | – | 0.218 µM | 0.0638 µM

— patent publication US8415376B2, “Inhibitors of PI3 kinase” (Amgen Inc., priority 2008, dated 2013)
